Patent publication US4973578A, “Synthetic peptides derived from the alpha-subunit of human lycoprotein hormones” (Mayo Foundation for Medical Education and Research, priority 1988, dated 1990)
Residues, ends and D or L forms follow the SMILES beside them.

Target: T1, TSH receptor on human thyroid membranes (Homo sapiens, UniProt P16473)
T1 construct: Thyroid tissue obtained at surgery from patients with Graves' disease was prepared as described by Takahashi et al; from tissue; host or cells: human thyroid tissue from Graves' disease patients, 2000xg membrane fraction
Assay: TSH radioreceptor assay: inhibition of 125I-bTSH binding to human thyroid membrane preparations
Conditions: for IC50: read-out: bTSH ED50 (effective dose necessary to inhibit binding of 125I-bTSH by 50%)
Procedure: Thyroid tissue obtained at surgery from patients with Graves' disease was prepared as described by Takahashi et al., J. Clin. Endocrinol. Metab. 47:870 (1978), the disclosure of which is incorporated herein. Briefly, the tissue was dissected free of fibrous material, minced with scissors, and homogenized with Polytron homogenizer. The 2000×g fraction was collected by centrifugation, washed and resuspended in 40 mM Tris, 0.1% Bovine Serum Albumin (BSA) pH 7.4 at a concentration of 100 mg equivalents of wet tissue per milliliter. The preparation was stored at -70° C. until used for assay.
Highly purified bovine TSH (30 IU/mg, supplied by Dr. J. G. Pierce, UCLA) was radio-iodinated (Na^125 I, Amersham, Chicago) by a gentle lactoperoxidase procedure described by Takahashi et al., supra, then purified by Sephadex G-100 chromatography.
The membrane assay incubation mixture consisted of […] of the 2000×g membrane fraction, 0.125 ng ^125 I bTSH (approximately 20,000 cpm, 5×10^-12 M), 100 ul of 1% Triton X-100 and noted amounts of test materials in a final volume of 0.5 ml of 40 mM Tris-HCl pH 7.4 plus 0.1% BSA. Nonspecific binding was determined by addition of excess unlabeled bTSH (200 mU/ml, Sigma, St. Louis). After 2 hrs incubation at 25° C., 200 ul of 5 mg/ml bovine gamma globulin and 1 ml 30% polyethylene glycol 6000 (Baker, Phillipsburg, N.J.) in 1M NaCl was added to each tube and the tubes centrifuged at 4000 rpm for 25 minutes. The supernatants were aspirated and pellets counted in a gamma counter. Specific binding averaged 25% of total counts.
FIG. 1 reports 5×10^-12 M labeled bTSH incubated with 10 mg equivalents (wet weight) of 2000×g fraction of thyroid membranes with varying concentrations of unlabeled TSH or synthetic α-subunit peptides. Nonspecific binding was determined in the presence of excess unlabeled TSH.

[1] = human thyroid membrane homogenates, ± S.E.

T1 sequence (P16473 21-764): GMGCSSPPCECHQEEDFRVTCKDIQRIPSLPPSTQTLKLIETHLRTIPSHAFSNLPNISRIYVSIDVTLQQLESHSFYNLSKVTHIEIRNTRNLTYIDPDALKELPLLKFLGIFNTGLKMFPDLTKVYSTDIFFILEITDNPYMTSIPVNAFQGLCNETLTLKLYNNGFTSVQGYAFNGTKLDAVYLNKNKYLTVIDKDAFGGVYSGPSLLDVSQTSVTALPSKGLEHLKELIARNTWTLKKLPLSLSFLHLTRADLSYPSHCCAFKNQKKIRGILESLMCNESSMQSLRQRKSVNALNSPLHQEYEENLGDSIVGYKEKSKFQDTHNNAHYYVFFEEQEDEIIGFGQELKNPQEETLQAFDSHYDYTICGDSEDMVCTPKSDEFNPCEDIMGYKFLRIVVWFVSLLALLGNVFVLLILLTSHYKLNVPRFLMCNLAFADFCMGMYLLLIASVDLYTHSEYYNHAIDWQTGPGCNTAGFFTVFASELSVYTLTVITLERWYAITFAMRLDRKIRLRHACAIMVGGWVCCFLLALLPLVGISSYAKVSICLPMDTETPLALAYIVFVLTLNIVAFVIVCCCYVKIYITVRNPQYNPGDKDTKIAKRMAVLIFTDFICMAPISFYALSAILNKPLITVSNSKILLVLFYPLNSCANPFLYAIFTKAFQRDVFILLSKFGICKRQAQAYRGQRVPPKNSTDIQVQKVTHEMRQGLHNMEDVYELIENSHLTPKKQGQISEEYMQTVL

SMILES | IC50 [1] | bTSH ED50 (effective dose necessary to inhibit binding of 125I-bTSH by 50%) [1] | displacement of 125I-bTSH label (at concentrations greater than 1×10^-5 m, FIG. 1)
CC(C)C[C@H](NC(=O)[C@@H](NC(=O)[C@H](CS)NC(=O)[C@H](CCC(=O)O)NC(=O)[C@@H]1CCCN1C(=O)[C@H](CS)NC(=O)[C@H](CC(=O)O)NC(=O)[C@H](CCC(N)=O)NC(=O)[C@@H](NC(=O)[C@H](CC(=O)O)NC(=O)[C@@H]1CCCN1C(=O)[C@H](C)N)C(C)C)[C@@H](C)O)C(=O)N[C@@H](CCC(N)=O)C(=O)N[C@@H](CCC(=O)O)C(=O)N[C@@H](CC(N)=O)C(N)=O [α1-15, Ala--Pro--Asp--Val--Gln--Asp--Cys--Pro--Glu--Cys--Thr--Leu--Gln--Glu--Asn] (H-APDVQDCPECTLQEN-NH2) | > 700 µM |  | 
CC[C@H](C)[C@H](NC(=O)[C@@H]1CCCN1C(=O)[C@H](C)NC(=O)CNC(=O)[C@@H]1CCCN1C(=O)[C@H](CCC(N)=O)NC(=O)[C@H](CO)NC(=O)[C@H](Cc1ccccc1)NC(=O)[C@H](Cc1ccccc1)NC(=O)[C@@H]1CCCN1C(=O)[C@H](CC(N)=O)NC(=O)[C@H](CCC(=O)O)NC(=O)[C@H](CCC(N)=O)NC(=O)[C@H](CC(C)C)NC(=O)[C@@H](N)[C@@H](C)O)C(N)=O [α11-25, Thr--Leu--Gln--Glu--Asn--Pro--Phe--Phe--Ser--Gln--Pro--Gly--Ala--Pro--Ile] (H-TLQENPFFSQPGAPI-NH2) |  | no activity | 
CC(C)C[C@H](NC(=O)[C@@H]1CCCN1C(=O)[C@@H](NC(=O)[C@@H]1CCCN1C(=O)[C@H](Cc1ccc(O)cc1)NC(=O)[C@H](C)NC(=O)[C@H](CCCNC(=N)N)NC(=O)[C@H](CO)NC(=O)[C@H](Cc1ccccc1)NC(=O)[C@H](CS)NC(=O)[C@@H](N)CS)[C@@H](C)O)C(=O)N[C@@H](CCCNC(=N)N)C(=O)N[C@@H](CO)C(=O)N[C@@H](CCCCN)C(=O)N[C@@H](CCCCN)C(N)=O [α31-45, Cys--Cys--Phe--Ser--Arg--Ala--Tyr--Pro--Thr--Pro--Leu--Arg--Ser--Lys--Lys] (H-CCFSRAYPTPLRSKK-NH2) | 31.2 ± 3.8 µM |  | more than 80%
CSCC[C@H](NC(=O)[C@@H](NC(=O)[C@H](CCCCN)NC(=O)[C@H](CCCCN)NC(=O)[C@H](CO)NC(=O)[C@H](CCCNC(=N)N)NC(=O)[C@@H](N)CC(C)C)[C@@H](C)O)C(=O)N[C@@H](CC(C)C)C(=O)N[C@H](C(=O)N[C@@H](CCC(N)=O)C(=O)N[C@@H](CCCCN)C(=O)N[C@@H](CC(N)=O)C(=O)N[C@H](C(=O)N[C@H](C(=O)N[C@@H](CO)C(N)=O)[C@@H](C)O)C(C)C)C(C)C [α41-55, Leu--Arg--Ser--Lys--Lys--Thr--Met--Leu--Val--Gln Lys--Asn--Val--Thr--Ser] (H-LRSKKTMLVQKNVTS-NH2) | 171 ± 28.3 µM |  | 
CC(C)[C@H](NC(=O)[C@H](CS)NC(=O)[C@H](CS)NC(=O)[C@@H](NC(=O)[C@H](CO)NC(=O)[C@H](CCC(=O)O)NC(=O)[C@H](CO)NC(=O)[C@@H](NC(=O)[C@@H](NC(=O)[C@H](CC(N)=O)NC(=O)[C@@H](N)CCCCN)C(C)C)[C@@H](C)O)[C@@H](C)O)C(=O)N[C@@H](C)C(=O)N[C@@H](CCCCN)C(=O)N[C@@H](CO)C(=O)N[C@@H](Cc1ccc(O)cc1)C(N)=O [α51-65, Lys--Asn--Val--Thr--Ser--Glu--Ser--Thr--Cys--Cys--Val--Ala--Lys--Ser--Tyr] (H-KNVTSESTCCVAKSY-NH2) | 237 ± 9.5 µM |  | 
CSCC[C@H](NC(=O)[C@@H](NC(=O)[C@@H](NC(=O)[C@@H](NC(=O)[C@H](CCCNC(=N)N)NC(=O)[C@H](CC(N)=O)NC(=O)[C@H](Cc1ccc(O)cc1)NC(=O)[C@H](CO)NC(=O)[C@H](CCCCN)NC(=O)[C@H](C)NC(=O)[C@@H](N)C(C)C)C(C)C)[C@@H](C)O)C(C)C)C(=O)NCC(=O)NCC(=O)N[C@@H](Cc1ccccc1)C(=O)N[C@@H](CCCCN)C(N)=O [α61-75, Val--Ala--Lys--Ser--Tyr--Asn--Arg--Val--Thr--Val--Met--Gly--Gly--Phe--Lys] (H-VAKSYNRVTVMGGFK-NH2) | > 700 µM |  | 
CSCC[C@H](N)C(=O)NCC(=O)NCC(=O)N[C@@H](Cc1ccccc1)C(=O)N[C@@H](CCCCN)C(=O)N[C@H](C(=O)N[C@@H](CCC(=O)O)C(=O)N[C@@H](CC(N)=O)C(=O)N[C@@H](Cc1c[nH]cn1)C(=O)N[C@H](C(=O)N[C@@H](C)C(=O)N[C@@H](CS)C(=O)N[C@@H](Cc1c[nH]cn1)C(=O)N[C@@H](CS)C(=O)N[C@@H](CO)C(N)=O)[C@@H](C)O)C(C)C [α71-85, Met--Gly--Gly--Phe--Lys--Val--Glu--Asn--His--Thr--Ala--Cys--His--Cys--Ser] (H-MGGFKVENHTACHCS-NH2) | > 700 µM |  | 
